Data set [1] deals with SARS-CoV-2 Spike protein. It counts as binding.
Data set [2] relates to SARS-CoV-2 Spike protein. It counts as cell-based.
In data set [3] the target is T1, SARS-CoV-2 Spike Protein receptor binding domain (RBD) (Severe acute respiratory syndrome coronavirus 2, UniProt P0DTC2).
T1 construct: SARS-CoV-2 RBD (amino acids R319 to F541); made in house; host or cells: Hi5 insect cells, MultiBac baculovirus

The test system of the next data set is Caco-2-ACE2 cells. Conditions: 50 uM linoleic acid.
Data set [4] deals with SARS-CoV-2 reporter virus (rSARS-CoV-2/Wuhan/ORF7-tGFP). In kind it is cell-based.
Data set [5] has as its system SARS-CoV-2 S glycoprotein. It counts as binding.
The next data set has as its system coronaviruses. Conditions: reference (4); cited from earlier work.
The conditions of data set [6]: cited from earlier work.

We go through four compounds from patent publication US20230227506A1, “Fatty Acid Complexes Of Coronavirus Spike Protein And Their Use” (priority 2020, published 2023).

Entries after “also recorded” stand apart in the source; their conditions may differ. Read-outs that look alike come from different tables or passages of the source.

With `CCCCCCCC/C=C\CCCCCCCC(=O)O` [OA, oleic acid], in the data set with SARS-CoV-2 Spike protein [1], the “Binding of FFA in Spike protein verified by LC-MS/MS” value (from here on “Binding of FFA”) was “successfully verified”. The “Minivirus-ACE2 cell binding compared to ApoS Miniviruses” value in the data set with SARS-CoV-2 Spike protein [2] is “able to reduce”. In addition, in data set [3], the “Binding to immobilized RBD quantified by SPR” value was “High affinity binding”.
Consider `CCCCCCCCCCCCCCCC(=O)O` [PA, palmitic acid], for which the “Binding of FFA” value in the data set with SARS-CoV-2 Spike protein [1] is given as “not”. Also, the “Minivirus-ACE2 cell binding compared to ApoS Miniviruses” value in the data set with SARS-CoV-2 Spike protein [2] is given as “did not significantly reduce”.
For the compound `CCCCC/C=C\C/C=C\CCCCCCCC(=O)O` [LA, linoleic acid], in the data set on Caco-2-ACE2 cells, the “Cell death of treated infected cells” value was “significant cell death was not observed”. Moreover, in the data set on SARS-CoV-2 Spike protein [1], the “Binding of FFA” value is “successfully verified”. Also, in data set [4], the “Effect on SARS-CoV-2 replication factories” value is “disrupted; also recorded: wrecked”; the “Effect on viral particles” value is “visible deformation and destruction”. Moreover, in data set [5], the “Binding to S in the trimer seen by cryo-EM” value is listed as “tightly binds”. Further, the “Virus replication on exogenous supplement” value with coronaviruses is “suppressed virus replication”. For the same compound, in the data set on SARS-CoV-2 Spike protein [2], the “Minivirus-ACE2 cell binding compared to ApoS Miniviruses” value is listed as “able to reduce”. In data set [6], the Water solubility result is recorded as “about 100 mg/l” and the “Water solubility (in words)” value was “extremely low water solubility”. The “Water solubility (in words)” value in data set [6] (listed as Linoleic Acid) is “virtually insoluble in water”. Also, the “Binding to immobilized RBD quantified by SPR” value in data set [3] is “high affinity binding”.
Regarding `CCCCC/C=C\C/C=C\C/C=C\C/C=C\CCCC(=O)O` [AA, arachidonic acid], the “Virus replication on exogenous supplement” value in the data set with coronaviruses was “suppressed virus replication”. Besides, the “Minivirus-ACE2 cell binding compared to ApoS Miniviruses” value in the data set with SARS-CoV-2 Spike protein [2] is reported as “able to reduce”.
